Like-named read-outs stand apart in the source and are kept apart here.
System: human peripheral blood mononuclear cells TNF-α
Test: Repression of TNF-α in human peripheral blood mononuclear cells (LPS, ELISA)
Format: cell-based
Details: PBMC, 3-fold diluted; for IC50: read-out: hPBMC IC50; for Emax: maximum effect value
Description: Experimental purpose: To express the anti-inflammatory activity of the test compound at the cellular level according to the level of TNF-α in human peripheral blood mononuclear cells (hPBMC).
• [0488] 1) The frozen cells were quickly thawed by continuous stirring in a 37° C. water bath. • [0489] 2) 25 mL of fresh pre-heated thawed culture medium was added to a 50 mL centrifuge tube. Then the cells were added gently, drop by drop. • [0490] 3) Cells were centrifuged at 2000 rpm for 10 min (ascending speed: 9, descending speed: 1). • [0491] 4) The supernatant was discarded and the cell particles were resuspended in 25 mL of freshly pre-heated RPMI 1640 culture medium.
• [0493] 5) After thawing and resuscitating the suspended cells, the number of cells was counted and the total number of cells required for the experiment was calculated. • [0494] 6) The cell suspension was diluted with an appropriate volume of cell culture medium. • [0495] 7) The cell suspension was poured into a sterile disposable container. • [0496] 8) 100,000 cells/(100 µL) of cell suspension was transferred to each well of a 96-well plate. • [0497] 9) The cell plates were placed in humidified air, 5% CO2 incubator, 37° C. for 2 hours.
[…] In the second step, the serum-free culture medium was diluted 125 times, and the concentration of DMSO was 0.8%. Then 16.8 µL of the compound diluted in culture medium was transferred to a 100 µL cell plate, and the concentration of DMSO was 0.114%.
After adding the compound, the cell plates were incubated in a 37° C. 5% CO2 incubator for 1 hour.
In the first step, LPS was diluted with ultrapure water to a storage concentration of 1 mg/mL. In the second step, the storage concentration of LPS was diluted to 1 µg/mL in serum-free culture medium. In the third step, serum-free culture medium was 1666.666-fold diluted. Then 16.8 µL of LPS that has been diluted with culture medium was transferred to a 116.8 µL cell plate. At this time, the final concentration of DMSO was 0.1%. After adding LPS, the cell plate was put into a 37° C., 5% CO2 incubator and incubated for 18 hours.
• [0505] 1. The TNF-α antibody was diluted to 1× in the coating solution, and then 100 µL per well was added to a 96-well high-binding performance plate, and the plate was sealed with a membrane and placed at 4° C. for 18 hours. • [0506] 2. 2000 mL of wash buffer was prepared to 1x for later use.
• [0508] 3. After the plate was coated overnight, the coating solution was poured out and washed 3 times with 300 µL of washing buffer per well. • [0509] 4. After the plate was washed, 200 µL of sealing buffer was added to each well, and the plate was sealed with membrane. Incubated for one hour in a 25° C. incubator. • [0510] 5. The cell plates incubated for 18 hours were placed in a centrifuge for centrifugation, temperature: 25° C., speed: 2000 rpm, time: 10 min, ascending speed: 9, descending speed: 1. After centrifugation, 100 µL of cell supernatant from each well was transferred to a 3599 cell plate, and then placed in a 4° C. refrigerator for later use. • [0511] 6. The cell supernatant was diluted 40 times with sealing buffer and placed in a 4° C. refrigerator for later use, and the standard was also placed in a 4° C. refrigerator for later use. • [0512] 7. After the sealing was completed, the sealing solution was poured out and washed three times with 300 µL of washing buffer per well. • [0513] 8. The diluted cell supernatant samples and standards were added to the ELISA plate, and the plate was sealed with membrane. Then incubated for 2 hours in a 25° C. incubator. • [0514] 9. The liquid in the plate was poured out and washed 5 times with 300 µL of washing buffer per well. • [0515] 10. Antibodies were prepared and 100 µL was added to each well and the plate was sealed with sealing membrane. Then incubated for one hour in a 25° C. incubator. • [0516] 11. The liquid in the plate was poured out and washed 7 times with 300 µL of washing buffer per well. • [0517] 12. […]

[1] = absolute IC50, test Top concentration 10000 nM, 8 concentration (unmarked)
[2] = test Top concentration 10000 nM, 8 concentration (unmarked)
[3] = absolute IC50, test Top concentration 100 nM, 8 concentration (***)
[4] = test Top concentration 100 nM, 8 concentration (***)
[5] = absolute IC50, test Top concentration 1000 nM, 8 concentration (*)
[6] = test Top concentration 1000 nM, 8 concentration (*)

C[C@H](NC(=O)C(C)(F)F)[C@H](Oc1ccc2c(cnn2-c2ccc3c(c2)CCCO3)c1)c1cc(F)cc(F)c1 [WX002]
IC50 [1]: 15.1 nM | Emax [2]: 84.6%

C[C@H](NC(=O)C(C)(F)F)[C@H](Oc1ccc2c(cnn2-c2ccc3nccn3c2)c1)c1cc(F)cc(F)c1 [WX003]
IC50 [3]: 0.97 nM | Emax [4]: 84.3%

CC(C)[C@H](NC(=O)C(C)(F)F)[C@H](Oc1ccc2c(cnn2-c2ccc3nccn3c2)c1)c1ccccc1 [WX004]
IC50 [5]: 15.9 nM | Emax [6]: 78.5%

CC(C)[C@H](NC(=O)C(C)(F)F)[C@H](Oc1ccc2c(cnn2-c2ccc3nncn3c2)c1)c1cc(F)cc(F)c1 [WX017]
IC50 [1]: 7.63 nM | Emax [2]: 83.1%

CC(C)[C@H](NC(=O)C(C)(F)F)[C@H](Oc1ccc2c(cnn2-c2ccc3nncn3c2)c1)c1ccccc1 [WX018]
IC50 [5]: 18.6 nM | Emax [6]: 69.3%

C[C@H](NC(=O)C(C)(F)F)[C@H](Oc1ccc2c(cnn2-c2ccc3nncn3c2)c1)c1cc(F)cc(F)c1 [WX019]
IC50 [3]: 0.98 nM | Emax [4]: 90%

C[C@H](NC(=O)C(C)(F)F)[C@H](Oc1ccc2c(cnn2-c2ccc3ncnn3c2)c1)c1cc(F)cc(F)c1 [WX034]
IC50 [5]: 12.6 nM | Emax [6]: 79.3%

C[C@H](NC(=O)C(C)(F)F)[C@H](Oc1ccc2c(cnn2-c2ccc3nnnn3c2)c1)c1cc(F)cc(F)c1 [WX035]
IC50 [5]: 11.6 nM | Emax [6]: 100%

C[C@H](NC(=O)C(C)(F)F)[C@H](Oc1ccc2c(cnn2-c2cnn(C)c2)c1)c1ccccc1 [WX043]
IC50 [5]: 4.9 nM | Emax [6]: 88.8%

C[C@H](NC(=O)C(C)(F)F)[C@H](Oc1ccc2c(cnn2-c2cn(C)nn2)c1)c1cc(F)cc(F)c1 [WX051]
IC50 (absolute IC50, test Top concentration 500 nM, 8 concentration (**)): 10.4 nM | Emax (test Top concentration 500 nM, 8 concentration (**)): 74.9%
